Our source for the RP-LC retention time values is the METLIN SMRT retention time set (Domingo-Almenara et al. 2019).

The nature of the data set: gradient 5% acetonitrile 3 min, to 50% in 2 min, to 85% in 15 min, held 3 min, 100 µL/min. The following applies: column: Zorbax Extend-C18 2.1 x 50 mm; eluents: water / acetonitrile, 0.1% formic acid. A digest of the protocol: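 Retention times of pure standards were taken from adduct peaks that were selected by computer and manually inspected. Over 3 months, mixtures of ~100 molecules were run by HPLC–quadrupole time-of-flight mass spectrometry in positive and negative ionization mode. The Zorbax Extend-C18 column (2.1 × 50 mm, 1.8 μm) ran at 100 μL/min in water and acetonitrile, each containing 0.1% formic acid, with 40 μL dead volume and 900 μL dwell volume.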
Consider `CCc1ccc(-c2csc(Nc3ccc(Br)cn3)n2)cc1`, for which the RP-LC retention time was 1330 s.

`CCCC(=O)N1CC(c2nc(-c3ccccc3)no2)C2(CCOCC2)C1` (stereo not given) returned an RP-LC retention time of 850 s.

`O=C(NCCc1c[nH]c2ccc(Cl)cc12)c1sc2ncccc2c1-n1cccc1` displayed an RP-LC retention time of 1060 s. As to `CCc1nc(N2CCc3ccccc3C2)ncc1C(=O)O`, the RP-LC retention time was 953 s. In the case of `CCc1cccc(NS(=O)(=O)c2cc(-c3[nH]ncc3C(=O)N3CCCCC3)oc2C)c1` it was 819 s; in that of `Cc1ccc(Nc2nc(C)cc(N3CCN(C(=O)C4CCCCC4)CC3)n2)cc1`, 734 s; in that of `CCC(=O)Nc1ccc2c(c1)Sc1ncccc1C(=O)N2C(C)C`, 704 s.

`CC(=O)c1cccc(NC(=O)CN(C)c2nc3c(F)cccc3s2)c1` displayed an RP-LC retention time of 798 s. `CN(Cc1ccccc1)C(=O)CCNc1c(-c2cccc(F)c2)nc2cnccn12` had an RP-LC retention time of 814 s. To `COc1ccccc1-c1nc2nccc(-c3ccsc3)n2n1` belongs 872 s. For `Cc1ccc(-c2nnc(SCC(=O)Nc3cc(C)ccc3C)o2)cc1`, the RP-LC retention time is 802 s. With `CCCn1ccc2sc(C)c(C(=O)O)c2c1=O`, the RP-LC retention time turned out to be 774 s. As to `COc1ccc(S(=O)(=O)NCCc2cn(CC(C)C)c3ncccc23)cc1Cl`, the RP-LC retention time came out at 962 s.

As for `CCC(=O)N1CCc2cc(N3CC(C(=O)Nc4ccc(SC)cc4)CC3=O)ccc21` (stereo not given), the RP-LC retention time turned out to be 789 s. In turn, `CCOC(=O)c1[nH]c2ccc(F)cc2c1NC(=O)CN(CC)CC` displayed an RP-LC retention time of 605 s. `COc1nc2ccccc2nc1N1CCCC(C(=O)Nc2cccc(Br)c2)C1` (stereo not given) yielded an RP-LC retention time of 1300 s.

Compound `COc1ccc(N2CCN(c3nc(C(=O)NCC4CC4)cs3)CC2)cc1` had an RP-LC retention time of 915 s. In the case of `CN1CCC(NC(=O)c2n[nH]c3c2CN(C(=O)c2ccccc2)CC3)CC1`, the RP-LC retention time stood at 568 s. With `Cn1cc(CN2CCC(C(=O)NC3CCCC3)CC2)c2cc(Cl)ccc21`, the RP-LC retention time was determined as 692 s. `CCc1nc(-c2csc(S(=O)(=O)N3CCC(C(=O)Nc4cc(C)ccn4)CC3)c2)no1` came in with an RP-LC retention time of 749 s.

Consider `COc1ccc(-c2nc3cc(C)ccn3c2Nc2ccc3c(c2)OCO3)cc1`, for which the RP-LC retention time came to 646 s.

`CC(C)CC(=O)N(CC(=O)N(Cc1ccc2c(c1)OCO2)Cc1ccco1)CC1CCCO1` (stereo not given) returned an RP-LC retention time of 866 s.

For the compound `CC(C)c1cccc(NC(=O)c2cn(C)nc2S(=O)(=O)N2CCSCC2)c1`, the RP-LC retention time stood at 1090 s. With `CCCCC(=O)N1CCN(C2CCN(CCC(C)C)C2=O)CC1` (stereo not given), the RP-LC retention time stood at 585 s.

On to `COCCNC(=O)C1Cn2cccc2C(=O)N1CC(C)C` (stereo not given), for which the RP-LC retention time was 624 s. To `Cc1ccc(NC(=O)Cn2cnc3nc(N4CCCC(C(=O)NC(C)C)C4)sc3c2=O)cc1F` (stereo not given) belongs 739 s; to `COc1ccc(C)cc1NC(=O)C(=O)NCCc1csc(-c2ccc(Cl)cc2)n1`, 1280 s; to `CNC(=O)[C@@H]1CN(C(=O)Cn2nc(C(F)(F)F)cc2C)C[C@H]1c1n[nH]c(C)n1`, 618 s.

As for `Cc1noc(C2(NC(=O)Nc3cccc(Cl)c3C)CCCCC2)n1`, the RP-LC retention time is 872 s. To `CCCc1ccc(S(=O)(=O)N2CCC3(CCC(CN4CCN(C)CC4)O3)CC2)cc1` (stereo not given) belongs 654 s.

In turn, `CC1=C(c2cccc(Cl)c2)S(=O)(=O)N=C1N1CCCN(C(=O)C2CC2)CC1` showed an RP-LC retention time of 763 s. As for `Cc1cc(C)n(-c2ccnc(N3CCC(C(=O)NCC4CCCO4)CC3)n2)n1` (stereo not given), the RP-LC retention time was 674 s.

The compound `CCc1noc(NC(C)=O)c1-c1ccc(OC)c(S(=O)(=O)Nc2ccc(OC)cc2OC)c1` returned an RP-LC retention time of 777 s.

Compound `CC(CNC(=O)c1nc(N2CCOCC2)c2ccccc2n1)c1ccccc1` (stereo not given) yielded an RP-LC retention time of 726 s. In the case of `CCCNC(=O)Cn1cc(C(=O)Nc2cc(C)cc(C)c2)c(=O)c2ccc(C)nc21` it was 982 s; in that of `CCN1CCN(CC(=O)Nc2ccc(C(C)=O)cc2)C(=O)C1=O`, 580 s; in that of `Cc1ccc(NC(=O)C2CC(=O)N(c3n[nH]c4cccc(F)c34)C2)nc1` (stereo not given), 606 s. With `CCC(C)N(CC(=O)N(Cc1ccco1)CC1CCCO1)C(=O)c1ccc(OC)cc1` (stereo not given), the RP-LC retention time was found to be 808 s.

Compound `CS(=O)(=O)N1CCC(C(=O)N2CCCCC2)Oc2ccc(Cl)cc21` (stereo not given) gave an RP-LC retention time of 793 s. In turn, `CC1=C(c2ccc(Cl)cc2)S(=O)(=O)N=C1N1CCCN(C(=O)c2ccccn2)CC1` gave an RP-LC retention time of 765 s. In the case of `Cc1cccc(N2C(=O)CN(Cc3ccccc3)[C@H]3CS(=O)(=O)C[C@H]32)c1` it was 859 s; in that of `CN1C(=O)CCc2cc(NC(=O)c3ccncc3)ccc21`, 579 s. To `O=c1n(Cc2ccc(F)cc2)nc2ccc(S(=O)(=O)N3CCc4ccccc4C3)cn12` belongs 983 s. To `Cc1c(N2CCC(C(=O)NCC3CCCO3)CC2)c(=O)n(C)c(=O)n1-c1ccccc1` (stereo not given) belongs 691 s.

As for `O=[N+]([O-])c1ccc(CSc2nnc(-c3cccc(S(=O)(=O)N4CCCC4)c3)o2)cc1`, the RP-LC retention time was found to be 937 s. Compound `CCOC(=O)c1csc(NC(=O)Cn2nc3c(cc2=O)CCCC3)n1` registered an RP-LC retention time of 727 s. Consider `COc1cccc(-c2n[nH]c3c2C(c2ccc(O)cc2)N(C)C3=O)c1` (stereo not given), for which the RP-LC retention time was found to be 693 s.

In turn, `COc1cc2c(cc1OC)C1C(C(=O)Nc3ccc4c(c3)OCCO4)c3ccccc3C(=O)N1CC2` (stereo not given) had an RP-LC retention time of 772 s. For `O=C(Cn1nc(C(=O)N2CCCC2)c2ccccc21)NCc1ccc(F)cc1`, the RP-LC retention time was determined as 780 s. In the case of `COCCNC(=O)c1nc2ccccn2c1-c1ccc(Cl)cc1` it was 731 s; in that of `CCn1cnc2ccc(-c3noc(COc4ccccc4OC)n3)cc21`, 712 s; in that of `O=C(C1CCCN(c2ncnc3c2nc2n3CCCCC2)C1)N1CCCCC1` (stereo not given), 713 s. In the case of `Cc1ccc(CNC(=O)Cn2cc(C(=O)N3CCCC3)c(=O)c3ccc(C)nc32)cc1` it was 694 s. In the case of `Cc1ccc(-n2c(N3CCCC(C(=O)NCc4ccc(C)o4)C3)nc3ccsc3c2=O)cc1` (stereo not given) it was 893 s; in that of `CCN(CC)CCSC(=O)C(c1ccccc1)c1ccccc1`, 765 s. For `O=C(c1cncc(Br)c1)N1CCC(Cc2nnc(-c3ccccc3)o2)CC1`, the RP-LC retention time came out at 782 s. On to `O=C(CCCS(=O)(=O)c1ccc(F)cc1)Nc1nnc(-c2ccno2)o1`, for which the RP-LC retention time turned out to be 637 s. `O=C(c1ccc2ncccc2c1)N1CCC(c2nc(C3CC3)n[nH]2)CC1` had an RP-LC retention time of 491 s. The compound `COc1ccc(-c2c(C)noc2NC(C)=O)cc1S(=O)(=O)N1CCN(c2ncccn2)CC1` came in with an RP-LC retention time of 700 s. On to `COCCNC(=O)C(=O)Nc1ccc(Br)cc1`, for which the RP-LC retention time is 795 s.

`O=C(c1nnc(-c2ccc(S(=O)(=O)N3CCCC3)cc2)o1)N1CCN(c2ccccn2)CC1`: the RP-LC retention time was 650 s. Consider `CCNC(=O)C1CCc2sc(C(=O)N3CCCCCC3)cc2C1` (stereo not given), for which the RP-LC retention time was determined as 748 s.

For the compound `CS(=O)(=O)c1ccc2nc(NCCc3cccs3)sc2c1`, the RP-LC retention time is 738 s.

Take `CCCc1nc(-c2c(C)cc(C)nc2NC(=O)c2ccccc2Cl)no1`: the RP-LC retention time is 934 s. `O=C(NC1CCN(Cc2ccccc2)CC1)C1CCN(c2ncnc3c2oc2ccccc23)CC1` gave an RP-LC retention time of 603 s. As to `COCCNc1c(-c2ccc(F)cc2)nc2sc(C(=O)NCc3ccncc3)c(C)n12`, the RP-LC retention time was found to be 625 s. To `CC(C)S(=O)(=O)N1CCC(CCOc2ccccc2)C1` (stereo not given) belongs 980 s. In the case of `CCCOc1ccc(CNC(=O)c2snc(C(=O)NCc3cccc(OC)c3)c2N)cc1` it was 1140 s. To `COc1ccc(CNC(=O)c2nsc(C(=O)NCCc3ccc(OC)c(OC)c3)c2N)cc1` belongs 922 s; to `COC(=O)C1=CCCCCC(N2CCOCC2)=C1C(=O)OC`, 684 s. Turning to `Cc1[nH]c(C(=O)N2CCCC(C(=O)NC(c3cccs3)C(C)C)C2)c(C)c1C(=O)OC(C)C` (stereo not given), the RP-LC retention time turned out to be 987 s.

With `CCc1noc(-c2cccnc2N2CCCN(Cc3cc(F)cc(F)c3)CC2)n1`, the RP-LC retention time was 673 s. In the case of `O=C(CN1CCN(Cc2ccccc2F)C1=O)NC1CCN(Cc2ccccc2)CC1` it was 610 s; in that of `Cc1ccc(C)c(NC(=O)C2CCCN(c3nc4c(s3)c(C)nn4-c3ccccc3)C2)c1` (stereo not given), 1220 s.

Take `Cc1ccc(S(=O)(=O)N2CCC(C(=O)NCc3csc(-c4cccs4)n3)CC2)cc1`: the RP-LC retention time is 910 s. `CCOC(=O)c1[nH]c(C)c(CN(Cc2ccco2)C(=O)c2ccc(N(C)C)cc2)c1C` showed an RP-LC retention time of 894 s.

In turn, `CC(C)c1ccc(-c2nc(-c3cccc(-c4ccnn4C)c3)no2)cc1` showed an RP-LC retention time of 1390 s. In turn, `COc1ccc(C(=O)NC2CCCCCC2)cc1CN1CC(=O)N2CCCC2C1=O` (stereo not given) returned an RP-LC retention time of 702 s. In the case of `CC(C)NC(=O)c1cc(C(C)(C)C)[nH]n1` it was 710 s; in that of `Cc1ccc(OCc2nnc(SCC(=O)Nc3nc(-c4ccccc4)cs3)o2)cc1`, 875 s.
